Assay results reported in article PMC9504244, “Lysophosphatidylinositol Induced Morphological Changes and Stress Fiber Formation through the GPR55-RhoA-ROCK Pathway” (International Journal of Molecular Sciences, 2022).

Molecular target: GPR55 (Homo sapiens, UniProt Q9Y2T6)
Test: cell rounding, dose response, GPR55-expressing vs empty-vector HEK293 cells
Type: cell-based

GPR55, sequence (Q9Y2T6 whole entry): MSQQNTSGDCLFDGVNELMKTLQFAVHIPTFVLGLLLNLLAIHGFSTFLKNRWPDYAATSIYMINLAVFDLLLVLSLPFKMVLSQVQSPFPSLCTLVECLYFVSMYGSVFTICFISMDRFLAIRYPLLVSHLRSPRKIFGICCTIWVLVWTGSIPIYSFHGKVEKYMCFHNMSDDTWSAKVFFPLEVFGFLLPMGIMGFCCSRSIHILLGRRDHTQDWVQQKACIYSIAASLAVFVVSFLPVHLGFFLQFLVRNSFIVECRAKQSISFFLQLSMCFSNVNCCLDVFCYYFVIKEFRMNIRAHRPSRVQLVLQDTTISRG

Cc1c(C(=O)NN2CCCCC2)nn(-c2ccc(Cl)cc2Cl)c1-c1ccc(Cl)cc1 [SR141716A]
cell rounding, dose response, GPR55-expressing vs empty-vector HEK293 cells: cell rounding induced by AM251 and SR141716A was not observed in empty vector-transfected cells
